Values joined by “and” are separate entries in the source; they are usually repeats but may differ in a detail not shown here. Identical values can stand only once. Counter-ions that a name gives are not always drawn. Like-named read-outs stand apart in the source and are kept apart here.
How the values were obtained:
Assay type in all cases: in vivo
sciatic nerve = test: Sciatic nerve blockade after injection at the sciatic nerve notch in rats; set-up: AUC of time-% PE curve, sciatic nerve blockade of motor function / AUC of time-% PE curve, sciatic nerve blockade of proprioception / AUC of time-% PE curve, sciatic nerve blockade of nociceptive reaction: unit not given beside the values; conditions: for ED50: Rattus norvegicus
Experimental: (§1) Male Sprague-Dawley rats (weighing about 300 to 350 g); for each dose of each drug, n=6.
In brief, the rats were slightly anesthetized by inhalation of a low concentration of sevoflurane. Then, 200 μL of tested drugs were injected at the sciatic nerve notch at the left hind limb of the rat using a 27-gauge needle connected to a tuberculin syringe (Becton Dickinson, USA, model BND309623-BX). Thereafter, development of sciatic nerve blockade was observed from the paralysis of the left hind limb of the rat. The right hind limb served as a control during the subsequent functional assay
For proprioception, the front half of the rat body and the right hind limb were off the ground at the same time so that the rat was standing on the left hind limb during the measurement.
The differences resided in that: The sciatic nerve notch injections of ED25, ED50 and ED75 were conducted based on the method described in the preceding section “A. Drug injection” of this example. Evaluations of motor function, proprioception and nociceptive reaction were conducted based on the method described in section “B. Neurobehavioral evaluations” of this example.
The differences resided in that: Before the statistical analysis, Shapiro-Wilk test was used to evaluate whether the data were, theoretically, normally distributed.

Male Sprague-Dawley rats [1] = test: Spinal anesthetic effect (spinal blockade) after intrathecal injection in rats; set-up: AUC of time-% PE curve, spinal blockade of motor function / AUC of time-% PE curve, spinal blockade of proprioception / AUC of time-% PE curve, spinal blockade of nociceptive reaction: unit not given beside the values; conditions: for AUC of time-% PE curve, spinal blockade of motor function / AUC of time-% PE curve, spinal blockade of nociceptive reaction / AUC of time-% PE curve, spinal blockade of proprioception: 2 ED50 when administered independently, ED50 of each drug when co-administered, mean ± SEM; for Motor function ED50 (95% CI): spinal blockade of motor function; for Motor function ED50 (95% CI) / Nociceptive reaction ED50 (95% CI) / Proprioception ED50 (95% CI): intrathecal injection; for Nociceptive reaction ED50 (95% CI): spinal blockade of nociceptive reaction; for Proprioception ED50 (95% CI): spinal blockade of proprioception; for Mean value ED25 / Mean value ED50 / Mean value ED75: spinal blockade, mean of motor function, proprioception and nociceptive reaction
Experimental: as §1
In brief, for preparation, the hairs on the back of each rat were shaved, and the shaved back was sterilized with iodine.
After three minutes, 50 μL of each of the tested drugs was injected via a 27-gauge needle attached to a 100-μL syringe (Hamilton, Reno, Nev.) into the intrathecal space between the fourth and fifth lumbar vertebrae. The development of spinal blockade was observed from the paralysis of the hind limbs of the rats.
The magnitude of nerve block (including blocking of motor function, proprioception, and nociceptive reaction) was expressed as the percentage of possible effect (hereinafter referred to as % PE), and the maximal value of % PE was expressed as the percentage of maximal possible effect (hereinafter referred to as % MPE).
Motor function was evaluated by measuring the extensor postural thrust of the right hind limbs of the rats using a digital platform balance (Mettler Toledo, Switzerland, model PB1502-S). To test the extensor postural thrust, the rat was held upright with the hind limb extended, so that the body weight of the rat was supported by the distal metatarsus and toes. The extensor postural thrust could be measured as the force of the right hind limb of the rat thrusting the platform balance.
A reduction in the force, resulting in extensor muscle tone, was considered as a motor deficit. A force less than 20 g (i.e., a weight of the “flaccid limb”) was considered absence of an extensor postural thrust or 100% motor block or 100% MPE.
Proprioception was evaluated based on resting posture and postural reactions (including tactile placing and hopping). First, the front half of the rat body and one of the hind limbs were lifted off the ground at the same time so that the rat was standing on one hind limb. Then, the rat was moved laterally, which normally evoked a prompt hopping response of the weight-bearing hind limb of the rat in the direction of movement so as to avoid falling. A predominantly proprioceptive block caused a delayed hopping followed by greater lateral hops. […] Functional deficits were classified into four grades: 3 (normal or 0% MPE), 2 (slightly impaired), 1 (severely impaired), and 0 (completely impaired or 100% MPE).
Nociceptive reaction was evaluated by the withdrawal reflex or vocalization elicited by the pinch of a skin fold over the back at 1 cm near the proximal part of the tail, the lateral metatarsus of the bilateral hind limbs, and the dorsal part of the mid-tail. At each testing time, only one pinch was given to each of the abovementioned four testing sites, and the time interval between stimulations at different sites was around 2 seconds. Nociceptive reactions were classified into five grades: 4 (normal or 0% MPE), 3 (25% MPE), 2 (50% MPE), 1 (75% MPE), and 0 (absent or 100% MPE).
The potency of each drug on spinal blockades was compared using ED50.
Duration was defined as the interval from injection of the tested drugs to complete recovery. The ED25, ED50 and ED75 obtained according to the SAS NLIN analysis in the preceding section “C. Potency evaluation” were used in this experiment.
Regarding the method of evaluating the effect of co-administration, dextromethorphan hydrobromide monohydrate was used as an example.
After the tests, the time of measurement of each drug and its corresponding % PE were plotted to obtain the time-% PE curves of each drug. The area under the curve (AUC) of time-% PE was calculated using the trapezoidal rule, and was used to evaluate the effect of the co-administration of the drugs.
Statistical software, SPSS for Windows® (version 10.0.7) was used. Data were represented as mean±SEM.

Male Sprague-Dawley rats [2] = test: Infiltrative cutaneous anesthesia (inhibition of cutaneous trunci muscle reflex, CTMR) after subcutaneous injection in rats
Experimental: Male Sprague-Dawley rats (weighing about 200 to 250 g); for each dose of each drug, n=8.
In brief, hairs on the dorsal surface (about 10×10 cm^2) of the thoracolumbar region of the rat were shaved, and the shaved surface was sterilized with iodine for preparation. To reduce the number of animals used, the back of the rat was further divided into left and right parts. One drug was injected first at the right part. After a washout period of one week, another drug was injected at the left part.
0.6 mL of drug was injected subcutaneously under the dorsal surface of the thoracolumbar region of the rat using a 30-gauge needle attached to a syringe (Becton Drive, Franklin Lakes, USA). The subcutaneous injection would result in a circular elevation (i.e., a wheal) of the skin, about 2 cm in diameter. The elevation was marked with ink within 1 minute after injection.
CTMR refers to the reflex movement of the skin of the back caused by twitching of the lateral thoracispinal muscle in response to local dorsal cutaneous stimulation. Essentially, a von Frey filament (No.15; Somedic Sales AB, Sweden) to which a cut end of an 18-gauge needle was affixed was used to produce a standard nociceptive stimulus (strength: 19 g). Six pinpricks (at a frequency of 0.5-1 Hz) were applied to a single marked wheal during each test. […] For example, absence of any response to all of the 6 pinpricks was defined as a complete nociceptive block (i.e., 100% MPE).
The difference resided in that subcutaneous injections of ED25, ED50 and ED75 of the drugs were performed based on the method described in the section “A. Drug injection” of this example, and evaluation of the infiltrative cutaneous anesthetic effect was performed based on the method described in the section “B. Neurobehavioral evaluation” of this example.

[3] = read-out: Motor function ED50 (95% CI)
[4] = read-out: Nociceptive reaction ED50 (95% CI)
[5] = read-out: Proprioception ED50 (95% CI)
[6] = rats, 2ED50 when administered independently, ED50 of each drug when co-administered, mean ± SEM
[7] = intrathecal dose of ED75, injection to complete recovery, rats
[8] = intrathecal dose of ED75, rats, mean±SEM
[9] = intrathecal, rats, hydrochloride
[10] = dosage of 6.7 mg/kg, sciatic nerve notch injection, rats
[11] = infiltrative cutaneous anesthesia, rats, 2ED50 when administered independently, ED50 for co-administration, mean ± SEM, hydrochloride
[12] = infiltrative cutaneous anesthesia, subcutaneous injection, rats
[13] = subcutaneous dose of ED75, rats, mean±SEM

COc1ccc2c(c1)[C@@]13CCCC[C@H]1[C@@H](C2)NCC3.Cl [3-methoxymorphinan hydrochloride]
sciatic nerve blocking effect on nociceptive reaction compared with motor function (sciatic nerve; ED50 basis, p<0.01, rats): more potent sciatic nerve blocking effect on nociceptive reaction than on motor function
ED50 (sciatic nerve; read-out: Mean ED50): 6.68 mg/kg
ED50 (sciatic nerve; [3]): 7.4 mg/kg
ED50 (sciatic nerve; [4]): 5.89 mg/kg
ED50 (sciatic nerve; [5]): 6.76 mg/kg
effect of co-administration with lidocaine hydrochloride on sciatic nerve blockades (sciatic nerve; rats, ED50 of each drug): additive effect
AUC of time-% PE curve, sciatic nerve blockade of motor function (sciatic nerve; [6]): 4559 ± 584
AUC of time-% PE curve, sciatic nerve blockade of nociceptive reaction (sciatic nerve; [6]): 8026 ± 1437
AUC of time-% PE curve, sciatic nerve blockade of proprioception (sciatic nerve; [6]): 5191 ± 652
duration of sciatic nerve blockade compared with lidocaine hydrochloride (sciatic nerve; same effective doses (ED25, ED50 or ED75), rats): longer reaction duration
% MPE of spinal blockades of motor function, proprioception and nociceptive reaction (range over the three functions) (Male Sprague-Dawley rats [1]; intrathecal dose of ED75, rats): 66-79 % MPE
duration of spinal blockades of motor function, proprioception and nociceptive reaction (range over the three functions) (Male Sprague-Dawley rats [1]; intrathecal dose of ED75, rats): 28 to 35 min
effect of co-administration with bupivacaine hydrochloride on spinal blockade (Male Sprague-Dawley rats [1]; intrathecal, rats, ED50 of each drug): additive effect
AUC of time-% PE curve, spinal blockade of motor function (Male Sprague-Dawley rats [1]; intrathecal, rats): 1265 ± 232
AUC of time-% PE curve, spinal blockade of nociceptive reaction (Male Sprague-Dawley rats [1]; intrathecal, rats): 2081 ± 227
AUC of time-% PE curve, spinal blockade of proprioception (Male Sprague-Dawley rats [1]; intrathecal, rats): 1917 ± 254
Motor function ED50 (95% CI) (Male Sprague-Dawley rats [1]; rats): 0.45 (0.43–0.47) mg
Nociceptive reaction ED50 (95% CI) (Male Sprague-Dawley rats [1]; rats): 0.39 (0.37–0.42) mg
Proprioception ED50 (95% CI) (Male Sprague-Dawley rats [1]; rats): 0.40 (0.38–0.43) mg
Mean value ED25 (Male Sprague-Dawley rats [1]; intrathecal, rats): 0.33 mg
Mean value ED50 (Male Sprague-Dawley rats [1]; intrathecal, rats): 0.41 mg
Mean value ED75 (Male Sprague-Dawley rats [1]; intrathecal, rats): 0.53 mg

CCCCN1CCCCC1C(=O)Nc1c(C)cccc1C (centres unmarked) [Bupivacaine hydrochloride, reference compound]
duration of spinal blockade of motor function (Male Sprague-Dawley rats [1]; [7]): about 25±3 minutes
duration of spinal blockade of nociceptive reaction (Male Sprague-Dawley rats [1]; [7]): ~63 ± 7 min
duration of spinal blockade of proprioception (Male Sprague-Dawley rats [1]; [7]): ~32 ± 4 min
% MPE of spinal blockade of motor function (Male Sprague-Dawley rats [1]; [8]): about 71±3 % MPE
% MPE of spinal blockade of nociceptive reaction (Male Sprague-Dawley rats [1]; [8]): ~81±3 % MPE
% MPE of spinal blockade of proprioception (Male Sprague-Dawley rats [1]; [8]): ~72±4 % MPE
AUC of time-% PE curve, spinal blockade of motor function (Male Sprague-Dawley rats [1]; [9]): 1292 ± 113 and 1238 ± 147 and 1383 ± 131
AUC of time-% PE curve, spinal blockade of nociceptive reaction (Male Sprague-Dawley rats [1]; [9]): 4378 ± 184 and 4512 ± 229 and 4410 ± 225
AUC of time-% PE curve, spinal blockade of proprioception (Male Sprague-Dawley rats [1]; [9]): 2597 ± 245 and 2638 ± 308 and 2774 ± 299
Motor function ED50 (95% CI) (Male Sprague-Dawley rats [1]; rats): 0.12 (0.11–0.12) mg
Nociceptive reaction ED50 (95% CI) (Male Sprague-Dawley rats [1]; rats): 0.09 (0.08–0.09) mg
Proprioception ED50 (95% CI) (Male Sprague-Dawley rats [1]; rats): 0.10 (0.10–0.11) mg
Mean value ED25 (Male Sprague-Dawley rats [1]; intrathecal, rats): 0.08 mg
Mean value ED50 (Male Sprague-Dawley rats [1]; intrathecal, rats): 0.11 mg
Mean value ED75 (Male Sprague-Dawley rats [1]; intrathecal, rats): 0.14 mg

CCN(CC)CC(=O)Nc1c(C)cccc1C [Lidocaine hydrochloride, reference compound]
ED50 (sciatic nerve; [3]): 2.67 mg/kg
ED50 (sciatic nerve; [4]): 2.35 mg/kg
ED50 (sciatic nerve; [5]): 2.57 mg/kg
% MPE of sciatic nerve blockade of motor function (sciatic nerve; [10]): 100 % MPE
% MPE of sciatic nerve blockade of nociceptive reaction (sciatic nerve; [10]): 100 % MPE
% MPE of sciatic nerve blockade of proprioception (sciatic nerve; [10]): 100 % MPE
duration of sciatic nerve blockade of motor function (sciatic nerve; [10]): about 63±6 minutes
duration of sciatic nerve blockade of nociceptive reaction (sciatic nerve; [10]): ~83 ± 6 min
duration of sciatic nerve blockade of proprioception (sciatic nerve; [10]): ~73 ± 4 min
ED50 (Male Sprague-Dawley rats [2]; Rattus norvegicus, sc, infiltrative cutaneous anesthesia, subcutaneous injection, rats, read-out: ED50 (95% CI)): 7 mg/kg
% MPE (Male Sprague-Dawley rats [2]; [11]): 90 ± 5 % MPE and 88 ± 6 % MPE
Duration (Male Sprague-Dawley rats [2]; [11]): 51 ± 3 min and 52 ± 4 min
ED25 (Male Sprague-Dawley rats [2]; [12]): 5.31 mg/kg
ED75 (Male Sprague-Dawley rats [2]; [12]): 9.24 mg/kg
% MPE of cutaneous nociceptive block (Male Sprague-Dawley rats [2]; [13]): 72±7 % MPE
duration of cutaneous nociceptive block (Male Sprague-Dawley rats [2]; [13]): ~33 ± 4 min
